This series is described as follows: Homogeneity of GOA: citric acid by HPLC in eight aliquots. It is filed as physicochemical. As to the method:
Citric acid is determined quantitatively by dissolving a known quantity of glucosamine citrate in deionized water. The solution is filtered through a 0.22μ filter into a HPLC vial. The sample is analyzed by HPLC using a BioRad HPX-87H column (BioRad, City, State) and 0.01 N H2SO4 as the mobile phase.
A sample containing a blend comprising 20% by weight anhydrous citric acid and 80% glucosamine hydrochloride was blended by tumbling for five minutes. The blended sample was poured into a tray. Eight aliquots were collected from different areas of the tray. The aliquots were diluted in 0.01N H2SO4, and then analyzed for citric acid by the method described in Example 6. The peak areas were normalized by the aliquot weights, and then averaged. The relative standard deviation for the eight aliquots was 7.7%.
A sample of GOA from Example 2, which had been stored at room temperature in a flask for approximately eleven months, having 12.3% citric acid was analyzed similarly. Eight aliquots were taken from the sample. Citric acid was determined by HPLC as described above. The peak areas were normalized by the aliquot weights, and then averaged. The relative standard deviation for the eight aliquots was 1.9%.
The analytical precision measured from eight aliquots of pure citric acid was 1.8% relative.

Consider `N[C@H]1C(O)O[C@H](CO)[C@@H](O)[C@@H]1O.O=C(O)CC(O)(CC(=O)O)C(=O)O` [GOA from Example 2, glucosamine citrate], for which the degree of homogeneity result (precision compared with pure citric acid) is reported as “high degree of homogeneity”.

`O=C(O)CC(O)(CC(=O)O)C(=O)O` [citric acid]: for the setting “pure citric acid, HPLC”, the “analytical precision measured from eight aliquots” value came out at 1.8 % relative.

(Values after patent US20050148545A1, “Glucosamine organic acid adducts” (priority 2001, published 2005).)
